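Protocol summary: plate cells (96-well), add compound at 5 concentrations, incubate 48 h, interpolate endpoints linearly. At the GI50, growth is halved.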 Activity calls are given as the source filed them. No stated cut-off is given here; in the data, active = GI50 up to about 1.1 µM and inactive = higher.
Experiments:
Experiment in all cases: NCI-60 cell line screen, 48 h
786-0 = system: 786-0
A498 = system: A498
A549 = system: A549
ACHN = system: ACHN
BT-549 = system: BT-549
CAKI-1 = system: CAKI-1
CCRF-CEM = system: CCRF-CEM
COLO 205 = system: COLO 205
DLD-1 = system: DLD-1
DMS-114 = system: DMS-114
DU-145 = system: DU-145
EKVX = system: EKVX
HCC 2998 = system: HCC 2998
HCT-116 = system: HCT-116
HCT-15 = system: HCT-15
HL-60 = system: HL-60
HOP-18 = system: HOP-18
HOP-62 = system: HOP-62
HOP-92 = system: HOP-92
HT-29 = system: HT-29
Hs-578T = system: Hs-578T
IGROV-1 = system: IGROV-1
K562 = system: K562
KM-20L2 = system: KM-20L2
KM12 = system: KM12
LOX IMVI = system: LOX IMVI
LXFL 529 = system: LXFL 529
M14 = system: M14
M19-MEL = system: M19-MEL
MCF7 = system: MCF7
MDA-MB-231 = system: MDA-MB-231
MDA-MB-435 = system: MDA-MB-435
MDA-N = system: MDA-N
MOLT-4 = system: MOLT-4
Malme-3M = system: Malme-3M
NCI-H226 = system: NCI-H226
NCI-H23 = system: NCI-H23
NCI-H460 = system: NCI-H460
NCI-H522 = system: NCI-H522
NCI/ADR-RES = system: NCI/ADR-RES
OVCAR-3 = system: OVCAR-3
OVCAR-4 = system: OVCAR-4
OVCAR-5 = system: OVCAR-5
OVCAR-8 = system: OVCAR-8
PC-3 = system: PC-3
RPMI-8226 = system: RPMI-8226
RXF 393 = system: RXF 393
RXF 631 = system: RXF 631
SF-268 = system: SF-268
SF-295 = system: SF-295
SF-539 = system: SF-539
SK-MEL-28 = system: SK-MEL-28
SK-MEL-2 = system: SK-MEL-2
SK-MEL-5 = system: SK-MEL-5
SK-OV-3 = system: SK-OV-3
SN12C = system: SN12C
SNB-19 = system: SNB-19
SNB-75 = system: SNB-75
SNB-78 = system: SNB-78
SR = system: SR
SW-620 = system: SW-620
T47D = system: T47D
TK-10 = system: TK-10
U-251 = system: U-251
UACC-257 = system: UACC-257
UACC-62 = system: UACC-62
UO-31 = system: UO-31
DMS-273 = system: DMS-273
XF498 = system: XF498

c1ccc(CN2COc3c(ccc4c5c(ccc34)CN(Cc3ccccc3)CO5)C2)cc1
GI50 (786-0): > 100 µM (inactive) | GI50 (A498): > 100 µM (inactive) | GI50 (A549): > 100 µM (inactive) | GI50 (ACHN): > 100 µM (inactive) | GI50 (BT-549): > 100 µM (inactive) | GI50 (CAKI-1): > 100 µM (inactive) | GI50 (CCRF-CEM): > 100 µM (inactive) | GI50 (COLO 205): > 100 µM (inactive) | GI50 (DLD-1): > 100 µM (inactive) | GI50 (DMS-114): > 100 µM (inactive) | GI50 (DU-145): > 100 µM (inactive) | GI50 (EKVX): > 100 µM (inactive) | GI50 (HCC 2998): > 100 µM (inactive) | GI50 (HCT-116): > 100 µM (inactive) | GI50 (HCT-15): > 100 µM | GI50 (HL-60): > 100 µM (inactive) | GI50 (HOP-18): 52 µM (inactive) | GI50 (HOP-62): > 100 µM (inactive) | GI50 (HOP-92): > 100 µM (inactive) | GI50 (HT-29): > 100 µM (inactive) | GI50 (Hs-578T): > 100 µM (inactive) | GI50 (IGROV-1): > 100 µM (inactive) | GI50 (K562): > 100 µM (inactive) | GI50 (KM-20L2): 26.2 µM (inactive) | GI50 (KM12): > 100 µM (inactive) | GI50 (LOX IMVI): > 100 µM (inactive) | GI50 (LXFL 529): > 100 µM (inactive) | GI50 (M14): > 100 µM (inactive) | GI50 (M19-MEL): > 100 µM (inactive) | GI50 (MCF7): > 100 µM (inactive) | GI50 (MDA-MB-231): > 100 µM (inactive) | GI50 (MDA-MB-435): > 100 µM (inactive) | GI50 (MDA-N): > 100 µM (inactive) | GI50 (MOLT-4): > 100 µM (inactive) | GI50 (Malme-3M): > 100 µM (inactive) | GI50 (NCI-H226): > 76.6 µM (inactive) | GI50 (NCI-H23): > 100 µM (inactive) | GI50 (NCI-H460): > 100 µM (inactive) | GI50 (NCI-H522): > 100 µM (inactive) | GI50 (NCI/ADR-RES): > 100 µM (inactive) | GI50 (OVCAR-3): > 100 µM (inactive) | GI50 (OVCAR-4): > 100 µM (inactive) | GI50 (OVCAR-5): > 100 µM (inactive) | GI50 (OVCAR-8): > 100 µM (inactive) | GI50 (PC-3): > 100 µM (inactive) | GI50 (RPMI-8226): > 100 µM (inactive) | GI50 (RXF 393): > 100 µM (inactive) | GI50 (RXF 631): > 100 µM (inactive) | GI50 (SF-268): > 100 µM (inactive) | GI50 (SF-295): > 100 µM (inactive) | GI50 (SF-539): > 100 µM (inactive) | GI50 (SK-MEL-28): > 100 µM (inactive) | GI50 (SK-MEL-2): > 100 µM (inactive) | GI50 (SK-MEL-5): > 100 µM (inactive) | GI50 (SK-OV-3): > 100 µM (inactive) | GI50 (SN12C): > 100 µM (inactive) | GI50 (SNB-19): > 100 µM (inactive) | GI50 (SNB-75): > 100 µM (inactive) | GI50 (SNB-78): > 100 µM (inactive) | GI50 (SR): > 100 µM (inactive) | GI50 (SW-620): > 100 µM (inactive) | GI50 (T47D): > 100 µM (inactive) | GI50 (TK-10): > 100 µM (inactive) | GI50 (U-251): > 100 µM (inactive) | GI50 (UACC-257): > 100 µM (inactive) | GI50 (UACC-62): > 100 µM (inactive) | GI50 (UO-31): > 100 µM (inactive)

COc1ccc2oc(-c3cc4cc(OC)ccc4o3)cc2c1
GI50 (786-0): > 100 µM (inactive) | GI50 (A549): > 100 µM (inactive) | GI50 (ACHN): > 100 µM (inactive) | GI50 (CAKI-1): > 100 µM (inactive) | GI50 (CCRF-CEM): > 100 µM (inactive) | GI50 (COLO 205): > 100 µM (inactive) | GI50 (DLD-1): > 100 µM (inactive) | GI50 (DMS-273): > 100 µM (inactive) | GI50 (EKVX): > 100 µM (inactive) | GI50 (HCC 2998): > 100 µM (inactive) | GI50 (HCT-15): > 100 µM | GI50 (HL-60): > 100 µM (inactive) | GI50 (HOP-62): > 100 µM (inactive) | GI50 (HOP-92): > 100 µM (inactive) | GI50 (IGROV-1): > 100 µM (inactive) | GI50 (K562): > 100 µM (inactive) | GI50 (KM-20L2): > 100 µM (inactive) | GI50 (KM12): > 100 µM (inactive) | GI50 (LOX IMVI): > 100 µM (inactive) | GI50 (LXFL 529): > 100 µM (inactive) | GI50 (M14): > 100 µM (inactive) | GI50 (MOLT-4): > 100 µM (inactive) | GI50 (Malme-3M): > 100 µM (inactive) | GI50 (NCI-H23): > 100 µM (inactive) | GI50 (NCI-H460): > 100 µM (inactive) | GI50 (NCI-H522): > 100 µM (inactive) | GI50 (OVCAR-3): > 100 µM (inactive) | GI50 (OVCAR-4): > 100 µM (inactive) | GI50 (OVCAR-5): > 100 µM (inactive) | GI50 (OVCAR-8): > 100 µM (inactive) | GI50 (RPMI-8226): > 100 µM (inactive) | GI50 (RXF 393): > 100 µM (inactive) | GI50 (RXF 631): > 100 µM (inactive) | GI50 (SF-268): > 100 µM (inactive) | GI50 (SF-295): > 100 µM (inactive) | GI50 (SK-MEL-28): > 100 µM (inactive) | GI50 (SK-MEL-2): > 100 µM (inactive) | GI50 (SK-MEL-5): > 100 µM (inactive) | GI50 (SK-OV-3): > 100 µM (inactive) | GI50 (SN12C): > 100 µM (inactive) | GI50 (SNB-19): > 100 µM (inactive) | GI50 (SNB-75): > 100 µM (inactive) | GI50 (SNB-78): > 100 µM (inactive) | GI50 (SW-620): > 100 µM (inactive) | GI50 (TK-10): > 100 µM (inactive) | GI50 (UACC-257): > 100 µM (inactive) | GI50 (UACC-62): > 100 µM (inactive) | GI50 (UO-31): > 100 µM (inactive) | GI50 (XF498): > 100 µM (inactive)

COc1cc2c[n+]3ccc4cc(OC)c(OC)cc4c3cc2cc1O
GI50 (786-0): > 100 µM (inactive) | GI50 (A498): > 100 µM (inactive) | GI50 (A549): > 100 µM (inactive) | GI50 (ACHN): > 100 µM (inactive) | GI50 (CCRF-CEM): > 100 µM (inactive) | GI50 (DLD-1): > 100 µM (inactive) | GI50 (EKVX): > 100 µM (inactive) | GI50 (HCC 2998): > 100 µM (inactive) | GI50 (HCT-116): > 100 µM (inactive) | GI50 (HCT-15): > 100 µM | GI50 (HL-60): > 100 µM (inactive) | GI50 (HOP-18): > 100 µM (inactive) | GI50 (HOP-92): > 100 µM (inactive) | GI50 (HT-29): > 100 µM (inactive) | GI50 (IGROV-1): > 100 µM (inactive) | GI50 (K562): > 100 µM (inactive) | GI50 (KM-20L2): > 100 µM (inactive) | GI50 (KM12): > 100 µM (inactive) | GI50 (LOX IMVI): > 100 µM (inactive) | GI50 (LXFL 529): > 100 µM (inactive) | GI50 (M14): > 100 µM (inactive) | GI50 (M19-MEL): > 100 µM (inactive) | GI50 (MOLT-4): > 100 µM (inactive) | GI50 (Malme-3M): > 100 µM (inactive) | GI50 (NCI-H23): > 100 µM (inactive) | GI50 (NCI-H460): > 100 µM (inactive) | GI50 (NCI-H522): > 100 µM (inactive) | GI50 (OVCAR-5): > 100 µM (inactive) | GI50 (OVCAR-8): > 100 µM (inactive) | GI50 (RPMI-8226): > 100 µM (inactive) | GI50 (RXF 393): > 100 µM (inactive) | GI50 (RXF 631): > 100 µM (inactive) | GI50 (SF-268): > 100 µM (inactive) | GI50 (SF-295): > 100 µM (inactive) | GI50 (SF-539): > 100 µM (inactive) | GI50 (SK-MEL-28): > 100 µM (inactive) | GI50 (SK-MEL-2): > 100 µM (inactive) | GI50 (SK-MEL-5): > 100 µM (inactive) | GI50 (SK-OV-3): > 100 µM (inactive) | GI50 (SN12C): > 100 µM (inactive) | GI50 (SNB-19): > 100 µM (inactive) | GI50 (SNB-75): > 100 µM (inactive) | GI50 (SR): > 100 µM (inactive) | GI50 (SW-620): > 100 µM (inactive) | GI50 (TK-10): > 100 µM (inactive) | GI50 (U-251): > 100 µM (inactive) | GI50 (UACC-257): > 100 µM (inactive) | GI50 (UACC-62): > 100 µM (inactive) | GI50 (UO-31): > 100 µM (inactive) | GI50 (XF498): > 100 µM (inactive)

— ChEMBL document CHEMBL1201862, “PubChem BioAssay data set” (2004)
